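Following 48 hours of exposure in 96-well plates, responses at five concentrations were used to interpolate endpoints linearly. The concentration for 50% growth inhibition is given as GI50.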 Calls of active or inactive are those of the source. Rule as the data show it: active = GI50 up to about 1.1 µM and inactive = higher.
Key:
Assay in all cases: NCI tumour cell line growth inhibition, 48 h
786-0 = system: 786-0
A498 = system: A498
A549 = system: A549
ACHN = system: ACHN
BT-549 = system: BT-549
CAKI-1 = system: CAKI-1
CCRF-CEM = system: CCRF-CEM
EKVX = system: EKVX
HCC 2998 = system: HCC 2998
HCT-116 = system: HCT-116
HCT-15 = system: HCT-15
HL-60 = system: HL-60
HOP-62 = system: HOP-62
HOP-92 = system: HOP-92
HT-29 = system: HT-29
Hs-578T = system: Hs-578T
IGROV-1 = system: IGROV-1
K562 = system: K562
KM12 = system: KM12
LOX IMVI = system: LOX IMVI
M14 = system: M14
MCF7 = system: MCF7
MDA-MB-435 = system: MDA-MB-435
MDA-N = system: MDA-N
MOLT-4 = system: MOLT-4
Malme-3M = system: Malme-3M
NCI-H226 = system: NCI-H226
NCI-H23 = system: NCI-H23
NCI-H460 = system: NCI-H460
NCI-H522 = system: NCI-H522
NCI/ADR-RES = system: NCI/ADR-RES
OVCAR-3 = system: OVCAR-3
OVCAR-4 = system: OVCAR-4
OVCAR-5 = system: OVCAR-5
OVCAR-8 = system: OVCAR-8
PC-3 = system: PC-3
RPMI-8226 = system: RPMI-8226
RXF 393 = system: RXF 393
SF-268 = system: SF-268
SF-295 = system: SF-295
SF-539 = system: SF-539
SK-MEL-28 = system: SK-MEL-28
SK-MEL-2 = system: SK-MEL-2
SK-OV-3 = system: SK-OV-3
SN12C = system: SN12C
SNB-19 = system: SNB-19
SNB-75 = system: SNB-75
SR = system: SR
SW-620 = system: SW-620
TK-10 = system: TK-10
U-251 = system: U-251
UACC-257 = system: UACC-257
UACC-62 = system: UACC-62
UO-31 = system: UO-31
COLO 205 = system: COLO 205
DU-145 = system: DU-145
MDA-MB-231 = system: MDA-MB-231
SK-MEL-5 = system: SK-MEL-5
T47D = system: T47D

For `Cc1nc2c(O)cccc2c(=O)[nH]1`, the GI50 (786-0) was > 1000 µM (inactive), the GI50 (A498) was 419 µM (inactive) and the GI50 (A549) was 360 µM (inactive). The GI50 (ACHN) was 348 µM (inactive), the GI50 (BT-549) was 174 µM (inactive) and the GI50 (CAKI-1) was 256 µM (inactive). The GI50 (CCRF-CEM) was 305 µM (inactive), the GI50 (EKVX) was 456 µM (inactive) and the GI50 (HCC 2998) was 418 µM (inactive). The GI50 (HCT-116) was 341 µM (inactive), the GI50 (HCT-15) was 270 µM and the GI50 (HL-60) was 174 µM (inactive). For the same compound, the GI50 (HOP-62) was 437 µM (inactive), the GI50 (HOP-92) was 845 µM (inactive) and the GI50 (HT-29) was 345 µM (inactive). The GI50 (Hs-578T) was 573 µM (inactive), the GI50 (IGROV-1) was 405 µM (inactive) and the GI50 (K562) was 359 µM (inactive). The GI50 (KM12) was 332 µM (inactive), the GI50 (LOX IMVI) was 485 µM (inactive) and the GI50 (M14) was 611 µM (inactive). The GI50 (MCF7) was 621 µM (inactive), the GI50 (MDA-MB-435) was 883 µM (inactive) and the GI50 (MDA-N) was 504 µM (inactive). The GI50 (MOLT-4) was 339 µM (inactive), the GI50 (Malme-3M) was 597 µM (inactive) and the GI50 (NCI-H226) was 203 µM (inactive). For the same compound, the GI50 (NCI-H23) was 303 µM (inactive), the GI50 (NCI-H460) was 263 µM (inactive) and the GI50 (NCI-H522) was 356 µM (inactive). The GI50 (NCI/ADR-RES) was 548 µM (inactive), the GI50 (OVCAR-3) was 542 µM (inactive) and the GI50 (OVCAR-4) was 399 µM (inactive). For the same compound, the GI50 (OVCAR-5) was 382 µM (inactive), the GI50 (OVCAR-8) was 437 µM (inactive) and the GI50 (PC-3) was 451 µM (inactive). For the same compound, the GI50 (RPMI-8226) was 135 µM (inactive), the GI50 (RXF 393) was 158 µM (inactive) and the GI50 (SF-268) was 467 µM (inactive). For the same compound, the GI50 (SF-295) was 351 µM (inactive), the GI50 (SF-539) was 355 µM (inactive) and the GI50 (SK-MEL-28) was > 1000 µM (inactive). The GI50 (SK-MEL-2) was > 1000 µM (inactive), the GI50 (SK-OV-3) was 348 µM (inactive) and the GI50 (SN12C) was 532 µM (inactive). The GI50 (SNB-19) was 670 µM (inactive), the GI50 (SNB-75) was 233 µM (inactive) and the GI50 (SR) was 114 µM (inactive). For the same compound, the GI50 (SW-620) was > 1000 µM (inactive), the GI50 (TK-10) was 302 µM (inactive) and the GI50 (U-251) was 670 µM (inactive). For the same compound, the GI50 (UACC-257) was 555 µM (inactive), the GI50 (UACC-62) was 232 µM (inactive) and the GI50 (UO-31) was 282 µM (inactive).

In the case of `O=C(CCCC(=O)N1CC(CCl)c2ccc([N+](=O)[O-])cc21)N1CC(CCl)c2ccc([N+](=O)[O-])cc21` (stereo not given), the GI50 (786-0) is reported as > 100 µM (inactive), the GI50 (A498) is reported as 34 µM (inactive) and the GI50 (A549) is reported as 33.3 µM (inactive). For the same compound, the GI50 (ACHN) was > 100 µM (inactive), the GI50 (BT-549) was > 100 µM (inactive) and the GI50 (CAKI-1) was > 100 µM (inactive). The GI50 (CCRF-CEM) was > 100 µM (inactive), the GI50 (COLO 205) was > 100 µM (inactive) and the GI50 (DU-145) was 81.3 µM (inactive). For the same compound, the GI50 (HCC 2998) was 63.8 µM (inactive), the GI50 (HCT-116) was > 100 µM (inactive) and the GI50 (HCT-15) was over 100 µM. The GI50 (HL-60) was > 100 µM (inactive), the GI50 (HOP-62) was > 100 µM (inactive) and the GI50 (HOP-92) was > 100 µM (inactive). The GI50 (HT-29) was > 100 µM (inactive), the GI50 (K562) was > 100 µM (inactive) and the GI50 (LOX IMVI) was > 100 µM (inactive). For the same compound, the GI50 (M14) was > 100 µM (inactive), the GI50 (MCF7) was > 100 µM (inactive) and the GI50 (MDA-MB-231) was > 100 µM (inactive). The GI50 (MDA-MB-435) was > 100 µM (inactive), the GI50 (MDA-N) was > 100 µM (inactive) and the GI50 (MOLT-4) was > 100 µM (inactive). For the same compound, the GI50 (NCI-H226) was > 100 µM (inactive), the GI50 (NCI-H23) was > 100 µM (inactive) and the GI50 (NCI-H460) was 38.4 µM (inactive). The GI50 (NCI-H522) was 71.4 µM (inactive), the GI50 (OVCAR-3) was > 100 µM (inactive) and the GI50 (OVCAR-4) was > 100 µM (inactive). For the same compound, the GI50 (OVCAR-5) was > 100 µM (inactive), the GI50 (PC-3) was > 100 µM (inactive) and the GI50 (RPMI-8226) was 43.7 µM (inactive). For the same compound, the GI50 (RXF 393) was > 100 µM (inactive), the GI50 (SF-268) was > 100 µM (inactive) and the GI50 (SF-295) was > 100 µM (inactive). For the same compound, the GI50 (SF-539) was > 100 µM (inactive), the GI50 (SK-MEL-28) was > 100 µM (inactive) and the GI50 (SK-MEL-2) was > 100 µM (inactive). For the same compound, the GI50 (SK-MEL-5) was 97.9 µM (inactive), the GI50 (SK-OV-3) was > 100 µM (inactive) and the GI50 (SN12C) was > 100 µM (inactive). The GI50 (SNB-19) was > 100 µM (inactive), the GI50 (SR) was 9.1 µM (inactive) and the GI50 (SW-620) was > 100 µM (inactive). The GI50 (T47D) was > 100 µM (inactive), the GI50 (TK-10) was > 100 µM (inactive) and the GI50 (U-251) was > 100 µM (inactive). For the same compound, the GI50 (UACC-257) was > 100 µM (inactive), the GI50 (UACC-62) was > 100 µM (inactive) and the GI50 (UO-31) was > 100 µM (inactive).
